Among the test systems are DU-145 prostate; SK-MEL-2 melanoma; CCRF-CEM leukemia; HOP-92 NSCLC; OVCAR-3 ovarian; PC-3 prostate; UACC-257 melanoma; NCI-H460 lung; SK-MEL-28 melanoma; A549 NSCLC; MDA-MB-231 breast; IGROV1 ovarian; OVCAR-4 ovarian; MCF7 breast; HCT-15 colon; A498 renal; NCI-H226 lung; T-47D breast; NCI-H522 lung.
What all share (assay): NCI-60 cell line screen, 48 h

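48-hour exposure; five concentrations; linearly interpolated endpoints. TGI: concentration producing complete growth inhibition.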 Some results are limits rather than exact numbers.

For the compound `COc1cc(-c2ccc(Br)[nH]2)[nH]c1C=NCC(C)C`, the TGI turned out to be 2.9 µM in the assay on DU-145 prostate; 3.07 µM in the assay with SK-MEL-2 melanoma; 3.24 µM with CCRF-CEM leukemia; 4.01 µM in the assay on HOP-92 NSCLC; 3.79 µM with OVCAR-3 ovarian; 4.39 µM in the assay on PC-3 prostate. The TGI in the assay on UACC-257 melanoma was 5.34 µM; in the assay on NCI-H460 lung it was 7.92 µM; in the assay with SK-MEL-28 melanoma it was 7.67 µM; in the assay on A549 NSCLC, 3.62 µM; in the assay with MDA-MB-231 breast it was 6.64 µM; with IGROV1 ovarian it was 7.09 µM. Further, the TGI was determined as 12.8 µM with OVCAR-4 ovarian, 2.47 µM in the assay on MCF7 breast, 3.15 µM in the assay with HCT-15 colon and 7.16 µM with A498 renal.
With `Cc1ccc2c(c1)[nH]c(=S)n2C=C(C(N)=O)C(N)=O`, the TGI with DU-145 prostate, with SK-MEL-2 melanoma, in the assay with HOP-92 NSCLC, with OVCAR-3 ovarian, in the assay with UACC-257 melanoma and with NCI-H460 lung was more than 100 µM in each case. Further, the TGI with SK-MEL-28 melanoma, in the assay with A549 NSCLC, in the assay on MDA-MB-231 breast, in the assay with IGROV1 ovarian, in the assay on OVCAR-4 ovarian and in the assay with NCI-H226 lung was more than 100 µM each time. For the same compound, the TGI in the assay on HCT-15 colon, in the assay on A498 renal and in the assay with T-47D breast was more than 100 µM in each case.
For `O=[N+]([O-])c1cccc2nc3ccccc3c(NCCCCNc3c4ccccc4nc4cccc([N+](=O)[O-])c34)c12`, the TGI is 0.133 µM with DU-145 prostate; more than 100 µM in the assay on SK-MEL-2 melanoma; 0.0892 µM in the assay with CCRF-CEM leukemia; 0.0854 µM with HOP-92 NSCLC; 0.231 µM in the assay with OVCAR-3 ovarian; more than 100 µM in the assay on PC-3 prostate. The TGI with UACC-257 melanoma is 0.682 µM; in the assay with NCI-H460 lung it was 0.0574 µM; in the assay with SK-MEL-28 melanoma, 0.522 µM; in the assay with A549 NSCLC, more than 33.2 µM; in the assay with IGROV1 ovarian it was 2.2 µM; with OVCAR-4 ovarian, 0.508 µM. For the same compound, the TGI in the assay on NCI-H226 lung was found to be 2.66 µM; in the assay with MCF7 breast, 0.412 µM; in the assay on HCT-15 colon, 1.02 µM; with NCI-H522 lung it was 0.0639 µM; in the assay on T-47D breast it was 1.04 µM.
As to `COC1(c2ccc(Cl)cc2)SC=C(C)n2c1noc2=O` (configuration not stated), the TGI in the assay with DU-145 prostate, in the assay with CCRF-CEM leukemia, with HOP-92 NSCLC, with OVCAR-3 ovarian, in the assay on PC-3 prostate and with UACC-257 melanoma was more than 100 µM throughout. In addition, the TGI with NCI-H460 lung, in the assay on SK-MEL-28 melanoma, with A549 NSCLC, in the assay with IGROV1 ovarian, in the assay with OVCAR-4 ovarian and in the assay with MCF7 breast was more than 100 µM throughout. For the same compound, the TGI in the assay on HCT-15 colon, in the assay on NCI-H522 lung and in the assay on A498 renal was more than 100 µM throughout.
As for `S=c1nc2sc3c(c2c(Nc2ccc(Cl)cc2)[nH]1)CCCC3`, the TGI in the assay with DU-145 prostate, with SK-MEL-2 melanoma, with CCRF-CEM leukemia, in the assay on HOP-92 NSCLC, in the assay with OVCAR-3 ovarian and in the assay with PC-3 prostate was more than 100 µM throughout. Besides, the TGI in the assay on UACC-257 melanoma, with NCI-H460 lung, in the assay with SK-MEL-28 melanoma, in the assay with MDA-MB-231 breast, in the assay with IGROV1 ovarian and in the assay with OVCAR-4 ovarian was more than 100 µM in each case. Also, the TGI with NCI-H226 lung, in the assay on MCF7 breast, in the assay with HCT-15 colon, in the assay with NCI-H522 lung and in the assay on A498 renal was more than 100 µM throughout.
`CC1=CC(=O)[C@@H](O)[C@]2(C)[C@H]3[C@@]4(O)OC[C@]35[C@H]([C@@H](C)[C@H]4O)[C@@H](OC(=O)C(C)(C)CO)C(=O)O[C@@H]5C[C@@H]12`: the TGI with SK-MEL-2 melanoma was 0.559 µM; in the assay on OVCAR-3 ovarian, 1.92 µM; in the assay on PC-3 prostate, 4.84 µM; with NCI-H460 lung, 0.547 µM; in the assay on SK-MEL-28 melanoma, more than 100 µM; in the assay with A549 NSCLC, 41.5 µM. In addition, the TGI with OVCAR-4 ovarian was 1.9 µM; in the assay with NCI-H226 lung, 0.553 µM; in the assay on MCF7 breast, more than 100 µM; in the assay with HCT-15 colon, 3.1 µM; with NCI-H522 lung, 0.417 µM; in the assay on A498 renal it was 5.39 µM.
Consider `CN(CC(=O)N1CC(CCl)c2ccc([N+](=O)[O-])cc21)CC(=O)N1CC(CCl)c2ccc([N+](=O)[O-])cc21` (configuration not stated), for which the TGI with DU-145 prostate, with SK-MEL-2 melanoma, with CCRF-CEM leukemia, in the assay with HOP-92 NSCLC, with OVCAR-3 ovarian and in the assay with PC-3 prostate was more than 100 µM in each case. The TGI with UACC-257 melanoma, with NCI-H460 lung, in the assay on SK-MEL-28 melanoma, in the assay on A549 NSCLC, with MDA-MB-231 breast and in the assay with IGROV1 ovarian was more than 100 µM each time. Also, the TGI in the assay on NCI-H226 lung, with MCF7 breast, in the assay on HCT-15 colon, in the assay with NCI-H522 lung and with A498 renal was more than 100 µM each time.
Consider `CC(=O)Nc1oc(C)c(C)c1S(=O)(=O)c1ccc(Cl)cc1`, for which the TGI with DU-145 prostate is more than 100 µM; with SK-MEL-2 melanoma, 85.6 µM; in the assay with CCRF-CEM leukemia, more than 100 µM; with HOP-92 NSCLC, more than 100 µM; in the assay with OVCAR-3 ovarian, more than 100 µM; with PC-3 prostate it was 83.4 µM. Also, the TGI in the assay with UACC-257 melanoma, in the assay with NCI-H460 lung, with SK-MEL-28 melanoma, with A549 NSCLC, in the assay with IGROV1 ovarian and in the assay with OVCAR-4 ovarian was more than 100 µM throughout. Besides, the TGI in the assay with NCI-H226 lung, with MCF7 breast, in the assay with HCT-15 colon, with NCI-H522 lung, in the assay with A498 renal and with T-47D breast was more than 100 µM in each case.

Source of the values: PubChem BioAssay (NCI).
